Entries after “also recorded” stand apart in the source; their conditions may differ.
Assays:
[1] = PK of JAM0388 after oral gavage, 2-PMPA in brain and plasma; type: in vivo; details: 30 mg/kg equivalent of 2-PMPA by oral gavage
[2] = Metabolic stability in human liver microsomes; type: in vitro ADME; details: 10 μM, 37° C.
Description: (§1) For metabolic stability, plasma (mouse, dog, monkey and human) and liver microsomes (mouse, dog, monkey and human) were used. For stability, prodrugs (10 μM) were spiked in each matrix and incubated in an orbital shaker at 37° C. At predetermined times (0, 30 and 60 min), 100 μL aliquots of the mixture in triplicate were removed and the reaction quenched by addition of three times the volume of ice cold acetonitrile spiked with the internal standard (losartan 5 μM). The samples were vortexed for 30 s and centrifuged 12000 g for 10 min. 50 μL supernatant diluted with 50 μL water was transferred to a 250 μL polypropylene vial sealed with a Teflon cap. Prodrug disappearance was monitored over time using a liquid chromatography and tandem mass spectrometry (LC/MS/MS) method as described below.
(§2) For LC/MS/MS, prodrugs were separated with Thermo Scientific Accela UPLC system coupled to Accela open autosampler on an Agilent C18 (100×2.1 mm id) UPLC column. The autosampler was temperature controlled and operating at 10° C. The mobile phase used for the chromatographic separation was composed of acetonitrile/water containing 0.1% formic acid and was run at a flow rate of 0.5 mL/minute for 4.5 minutes using gradient elution. The column effluent was monitored using TSQ Vantage triple-quadrupole mass spectrometric detector, equipped with an electrospray probe set in the positive ionization mode. Samples were introduced into the ionization source through a heated nebulized probe (350° C.).
(§3) For quantification of compound remaining, disappearance of prodrugs was measured from ratio of peak areas of analyte to IS. Percentage remaining was calculated in the following manner: […]

[3] = In vitro metabolic stability screen in plasma and liver subcellular fractions (results in words); type: in vitro ADME; details: 60 min incubation
Description: as §1, §2
For quantification of compound remaining, disappearance of prodrugs was measured from ratio of peak areas of analyte to IS. Percentage remaining was calculated in the following manner:
In general, the prodrugs were screened by an in vitro metabolic stability screen, and if positive, followed by an in vivo single time point pharmacokinetic study, and in select cases, an in vivo full time course pharmacokinetic study (FIG. 3). In this Example, the four acidic functional groups in 2-PMPA were systematically capped. The carboxylic acids were first masked with simple alkyl esters (Compounds 1, 2, and 3). In vitro chemical and metabolic stability of the prodrugs then were conducted, following 60 min incubation in plasma stability screens for prodrugs.

[4] = Metabolic stability in human plasma; type: in vitro ADME; details: 10 μM, 37° C.
Description: as §1, §2, §3

[5] = Chemical stability in HBSS buffer (pH 7.4) / simulated gastric fluid; type: physicochemical; details: for Percentage remaining: HBSS, 10 μM, 37° C.
Description: The chemical stability of prodrugs was evaluated using simulated gastric fluid (pH 1.2) and Hanks' Balanced Salt Solution (HBSS) buffer (pH 7.4). Briefly, prodrugs were spiked (10 μM) in respective solutions and incubated at 37° C. for 1 h. At predetermined time points (0, 30 and 60 min), aliquots of 100 μL were removed and diluted with 100 μL of water. Prodrug disappearance was monitored using the developed liquid chromatography and tandem mass spectrometry (LC/MS/MS) method described below.
as §2, §3

[6] = Metabolic stability in mouse liver S9; type: in vitro ADME; details: Mouse S9, 10 μM, 37° C.
[7] = Metabolic stability in mouse liver microsomes; type: in vitro ADME; details: 10 μM, 37° C.
Description: as §1, §2, §3

[8] = Metabolic stability in mouse plasma; type: in vitro ADME; details: 10 μM, 37° C.
Description: as §1, §2, §3

[9] = In vivo pharmacokinetics in mice, peroral, bioanalysis method 2 (2-PMPA release); details: for stability of carboxylic esters in vivo: mouse
Description: Blood was obtained via cardiac puncture and tissue dissected at 0 min, 15 min, 30 min, 1 h, 2 h, and 4 h post dose (n=3 per time point). Single time point studies were conducted at 30 min (N=3) following dosing. Plasma was harvested from blood by centrifugation. Mean concentration-time data was used for pharmacokinetic (PK) analysis. Non-compartmental-analysis module in WinNonlin® (version 5.3) was used to assess pharmacokinetic parameters. Peak plasma concentrations (Cmax) and time to Cmax (Tmax) were the observed values. Area under the curve (AUC) was calculated by log-linear (p.o.) trapezoidal rule to the end of sample collection (AUClast) and extrapolated to infinity (AUC0-∞) by dividing the last quantifiable concentration by the terminal disposition rate constant (ke). […] The tissues were stored in −20° C. for 1 h and then homogenized. The calibration curve for the tissues was developed using naïve mouse brains from untreated animals as a matrix. For sciatic nerve, the nerves were weighed and homogenized in 50 μL methanol and the calibration curve was developed using naïve sciatic nerves from untreated animals as a matrix. The samples were vortexed and centrifuged. […] Supernatant was dried under a gentle stream of nitrogen at 45° C. and the residue reconstituted with 75 μL of acetonitrile and vortexed. 25 μL of derivatizing agent N-tert-Butyldimethysilyl-N-methyltrifluoro-acetamide (MTBSTFA) was added to microcentrifuge tubes, vortexed, and heated at ˜60 OC for 40 min. At the end of 40 min, the derivatized samples ˜75 μL were transferred to a 250 μL polypropylene vials and were analyzed via LC/MS/MS. Chromatographic analysis was performed using an Accela™ ultra high-performance system consisting of an analytical pump, and an autosampler coupled with TSQ Vantage mass spectrometer (Thermo Fisher Scientific Inc., Waltham Mass.). […] The total run time for each analyte was 5.0 min. Chromatographic analysis will be performed on Accela UPLC.

[10] = In vivo pharmacokinetics in mice, peroral, bioanalysis method 1 (total prodrug exposure); details: mice, oral dosing
Description: Blood was obtained via cardiac puncture and tissue dissected at 0 min, 15 min, 30 min, 1 h, 2 h, and 4 h post dose (n=3 per time point). Single time point studies were conducted at 30 min (N=3) following dosing. Plasma was harvested from blood by centrifugation. Mean concentration-time data was used for pharmacokinetic (PK) analysis. Non-compartmental-analysis module in WinNonlin® (version 5.3) was used to assess pharmacokinetic parameters. Peak plasma concentrations (Cmax) and time to Cmax (Tmax) were the observed values. Area under the curve (AUC) was calculated by log-linear (p.o.) trapezoidal rule to the end of sample collection (AUClast) and extrapolated to infinity (AUC0-∞) by dividing the last quantifiable concentration by the terminal disposition rate constant (ke). Terminal half-life (t1/2) was estimated from first order kinetics: t1/2=0.693/ke.
Briefly, prior to extraction, frozen samples were thawed on ice. For plasma extraction, 50 μL of the calibration standards or samples were transferred into silanized microcentrifuge tubes. Sample preparation involved a single liquid extraction by addition of 300 μL of methanol as extraction solution with internal standard (i.e., 5 μM of 2-PMSA in methanol), followed by vortexing for 30 s and then centrifugation at 12000 g for 10 min. Supernatant was transferred (˜250 μL) and evaporated to dryness at 40° C. under a gentle stream of nitrogen. The residue was reconstituted with 100 μL of derivatizing agent, n-butanol with 3N HCl, and samples were vortexed. The samples were heated at ˜60 OC in a shaking water bath for 30 min. At the end of 30 min, the derivatized samples were allowed to cool at room temperature and dried again for removal of derivatizing reagent, under a gentle stream of nitrogen. The residue was reconstituted in 100 μL of 30% acetonitrile in water v/v. The samples were vortexed and centrifuged again. ˜80 μL supernatant was transferred to a 250 μL polypropylene vial sealed with a Teflon cap and a volume of 10 μL was injected onto the ultra-performance liquid chromatography (UPLC) instrument for quantitative analysis. Chromatographic analysis was performed using an Accela™ ultra high-performance system consisting of an analytical pump, and an autosampler coupled with TSQ Vantage mass spectrometer (Thermo Fisher Scientific Inc., Waltham Mass.). […] The mobile phase used was composed of 0.1% formic acid in acetonitrile and 0.1% formic acid in H2O with gradient elution, starting with 20% (organic) linearly increasing to 65% up to 2.5 min, maintaining at 65% (2.5-3.5 min) and reequilibrating to 30% by 5 min. The total run time for each analyte was 5.0 min.

4-((diphenoxyphosphoryl)methyl)-5-(((isopropoxycarbonyl)oxy)methoxy)-5-oxopentanoic acid [Compound 30]
brain levels of 2-PMPA ([1]; brain at 30 min and 5 h): low at both time points | release of 2-PMPA in plasma ([1]; plasma at 30 min and 5 h): excellent release of 2-PMPA in plasma

COC(=O)CCC(CP(=O)(O)O)C(=O)OC (centres unmarked) [Compound 1, [5-(Methyloxy)-2-(methoxycarbonyl)-5-oxopentyl]phosphonic acid]
Percentage remaining ([2]; 0 min): 100% | Percentage remaining ([2]; 30 min): 90% | Percentage remaining ([2]; 60 min): 96% | in vitro metabolic stability [3]: too stable; also recorded: stable in plasma | in vitro metabolic stability ([3]; listed as JHU 2106): too stable | Percentage remaining ([4]; 0 min): 100% | Percentage remaining ([4]; 30 min): 100% | Percentage remaining ([4]; 60 min): 86% | Percentage remaining ([5]; 0 min): 100% | Percentage remaining ([5]; 30 min): 92% | Percentage remaining ([5]; 60 min): 94% | Percentage remaining ([6]; 0 min): 100% | Percentage remaining ([6]; 30 min): 101% | Percentage remaining ([6]; 60 min): 86% | Percentage remaining ([7]; 0 min): 100% | Percentage remaining ([7]; 30 min): 102% | Percentage remaining ([7]; 60 min): 103% | Percentage remaining ([8]; 0 min): 100% | Percentage remaining ([8]; 30 min): 102% | Percentage remaining ([8]; 60 min): 101% | stability of carboxylic esters in vivo [9]: too stable in vivo

CCOC(=O)CCC(CP(=O)(O)O)C(=O)OCC (centres unmarked) [Compound 2, [5-Ethoxy-2-(ethoxycarbonyl)-5-oxopentyl]phosphonic acid]
Percentage remaining ([2]; 0 min): 100% | Percentage remaining ([2]; 30 min): 88% | Percentage remaining ([2]; 60 min): 73% | in vitro metabolic stability [3]: too stable | Percentage remaining ([4]; 0 min): 100% | Percentage remaining ([4]; 30 min): 81% | Percentage remaining ([4]; 60 min): 59% | permeability in vivo [10]: showed the most permeability | Percentage remaining ([6]; 0 min): 100% | Percentage remaining ([6]; 30 min): 103% | Percentage remaining ([6]; 60 min): 103% | Percentage remaining ([7]; 0 min): 100% | Percentage remaining ([7]; 30 min): 99% | Percentage remaining ([7]; 60 min): 88% | Percentage remaining ([8]; 0 min): 100% | Percentage remaining ([8]; 30 min): 99% | Percentage remaining ([8]; 60 min): 83% | stability of carboxylic esters in vivo [9]: too stable in vivo

CCCOC(=O)CCC(CP(=O)(O)O)C(=O)OCCC (centres unmarked) [Compound 3, [5-Oxo-5-propoxy-2-(propoxycarbonyl)pentyl]phosphonic acid]
in vitro metabolic stability [3]: too stable | permeability in vivo [10]: then the propyl ester | stability of carboxylic esters in vivo [9]: too stable in vivo

CC(C)OC(=O)OC(C)OC(=O)C(CCC(=O)O)CP(=O)(OC(C)OC(=O)OC(C)C)OC(C)OC(=O)OC(C)C (centres unmarked) [Compound 24]
Percentage remaining ([2]; 0 min): 100% | Percentage remaining ([2]; 30 min): 27% | Percentage remaining ([2]; 60 min): 8% | in vitro metabolic stability [3]: instability in plasma and liver subcellular fractions | Percentage remaining ([4]; 0 min): 100% | Percentage remaining ([4]; 30 min): 106% | Percentage remaining ([4]; 60 min): 75% | chemical stability ([5]; chemical hydrolysis / HBSS buffer): sufficient chemical stability | Percentage remaining ([7]; 0 min): 100% | Percentage remaining ([7]; 30 min): 1% | Percentage remaining ([7]; 60 min): 0% | Percentage remaining ([8]; 0 min): 100% | Percentage remaining ([8]; 30 min): 0% | Percentage remaining ([8]; 60 min): 0% | oral bioavailability ([9]; rodents and dogs): excellent oral bioavailability
